Assay results taken from US20230141863A1, “Small Molecule Inhibitors Targeting the Sodium Channel Tamoxifen Receptor and Uses Thereof” (Northwestern University, priority 2021, published 2023).

What was measured:
[1] = target: T1, human Nav1.7 (Homo sapiens, UniProt Q15858); experiment: Voltage clamp of heterologously expressed Nav1.7; type: cell-based; settings: Hill fit, printed for ND-Tam and 4OH-Tam together
T1 construct: expressed in transfected cells; host or cells: HEK cells, transient transfection with lipofectamine
Description: While no clear drug-receptor interactions were determined within Siteout, the S6 E220 side chains formed hydrogen bond interactions with the ether and amine moieties of the ND-Tam molecules found at Sitein. […] After structural alignment of the crystalized NavMs-Tam complex with the cryo EM Nav1.7+b1+b2 channel coordinates, the S6 side chain hydroxyl in DII (S969) and the carboxyl side chains in DIII (E1458) and DIV (D1761) observed in the human channel were nearly superimposable with E220 of the prokaryotic Nav subunits. In addition, the distances from the drug ether and amines were within acceptable distances (2.8-3.1 Å) for hydrogen bond formation for all three site chains (FIG. 2B). […]
Plasmids encoding the human version of channels Nav1.1, 1.6, and 1.7 were co-transfected with TRES GFP into HEK cell lines for whole-cell voltage clamp studies (American Type Culture Collection). […] Plasma membrane currents were recorded using borosilicate glass electrodes polished to resistances of […]. Sodium currents conducted by heterologously expressed Navs were recorded using the following solutions (in mM). […] Endogenous DRG sodium currents were recorded using an intracellular solution consisting of 70 CsCl, 70 CsF, 2 EGTA, 5 HEPES, and 5 NaCl; the pH was adjusted to 7.4 with CsOH. […]

[2] = system: T2, endogenous voltage-gated sodium channels expressed in murine DRG neurons; experiment: Whole cell voltage clamp of endogenous sodium currents (INa) in cultured DRG sensory neurons; type: cell-based, mouse; settings: for voltage dependence of INa inhibition (in words): −60 mV versus −100 mV holding potential
T2 construct: other: waiting for 5 minutes after removal; ND-Tam potency against DRG INa (IC50); other: DRG neurons, −60 mV holding potential; other: 3 μM ND-Tam treatment; other: DR
Description: FIG. 1. Tamoxifen metabolites inhibit endogenous voltage-gated sodium channels expressed in murine DRG neurons. A) DIC and fluorescence images of voltage clamped DRG neuron isolated and cultured from an Nav1.8-tomato mouse. Continuity with the patched neuron is indicted by the GFP (Alexa Fluor 488 dye 1 nM) loaded into the glass patch electrode. B) Top, exemplar sodium currents (INa) recorded in control saline and two concentrations of N-desmethyl tamoxifen (ND-Tam) from a voltage-clamped DRG neuron. INa was activated by 0.2 Hz train of 50 ms depolarizations to −10 mV from −100 mV holding potential. Bottom, time course of peak INa inhibition during control conditions and after 5 minutes of extracellular ND-Tam treatment. C) Resulting drug concentration-INa inhibition relationship for ND-Tam fit to the Hill equation. Open symbols represent responses from individual cells and filled symbols represent average response per concentration. Error is equal to S.E.M. (n=11) D) A comparison of the percent INa recovery after 3-10 μM ND-Tam or 1 mM carbamazepine (CBZ) inhibition. INa recovery was assessed after 5 minutes in control saline post drug exposure. Fewer INa recovered from ND-Tam exposure compared to CBZ exposure, 14.3±5.4% and 47.2±9.6%, respectively, and was statistically significant (P=0.03). Error is equal to S.E.M. and the number of cells tested per treatment group is indicated within the parentheses.
Previously, a unique receptor site for tamoxifen analogues within the prokaryotic sodium channel isolated form Magnetococcus marinus (NavMs)^36 (Sula et al) was crystallographically identified. Because drug occupancy of this receptor caused long lasting inhibition of the NavMs INa, the inventors wondered if these properties would translate into effects against sensory neuron Na s which transmit pain signals. Accordingly, =the potency of ND-Tam and 4OH-Tam was tested against endogenously expressed Na s in cultured DRG sensory neurons isolated from Nav1.8-tdTomato mice by conducting whole cell voltage clamp recordings (FIG. 1A, B). Sodium currents were activated by a 0.2 Hz train of −10 mV depolarizations from a holding potential of −100 mV. The externally applied drug effect was determined after three to five minutes of application of each drug concentration (FIG. 1B). […] As discussed in the introduction, total DRG INa is conducted by the Nav1.1, Nav1.6, Nav1.7, Nav1.8 and Nav1.9 subtypes. To determine if there is any specificity in the potency of tamoxifen analogues against Nav subtypes, human orthologues were heterologously expressed in cell lines (HEK and CHO co-expressing hb1 subunits), and conducted voltage-clamp experiments, as previously performed in the DRG neurons.
Dorsal root ganglia were isolated using a modified version of the previously described protocol (PMID: 26864470). All animal procedures were approved by the Institutional Animal Care and Use Committee at the Feinberg Medical School, Northwestern University. The spinal columns of 4-6-week-old […] or Nav1.8-Tomato mice (Nav1.8-Td) were removed and DRG neurons from all spinal levels were isolated for primary culture (PMID: 33827672, PMID: 31351964). The collected DRGs, containing both neuronal and non-neuronal cells, were acutely dissociated in DMEM with collagenase IV (2 mg/mL) for 30 minutes, followed by papain (25 U/mL) for 30 minutes. The cells were then triturated, filtered through a 40 μm cell strainer to remove non-dissociated cells, and washed with DMEM. The DRGs were resuspended in 70 μL of pre-warmed growth medium (DMEM F12+Glutamax supplemented with 0.5% FBS, 0.5% penicillin/streptomycin, 1% N-2 supplement, and β-NGF ([…]) added on the day of use) and plated on poly-l-lysine (10 mg/mL) and laminin (25 μg/mL) prepared coverslips. The DRGs were incubated at 37° C. for 2-4 hours before more growth medium was added to the wells. […]

[3] = system: mice with knee hyperalgesia post DMM surgery; experiment: In vivo osteoarthritis pain model (DMM), knee hyperalgesia after intra-articular injection; design: species or system mouse; settings: 50 μM intra-articular, vehicle 0.1% DMSO; for knee hyperalgesia versus vehicle, direct comparison study (in words): 30 minutes after injection; for knee withdrawal threshold versus vehicle control (in words): through 3 hours after injection
[4] = system: mice with knee hyperalgesia post DMM surgery; settings: 20 mg/kg, ~0.85M, PMID: 29563338; cited from earlier work

T1 sequence (Q15858 whole entry): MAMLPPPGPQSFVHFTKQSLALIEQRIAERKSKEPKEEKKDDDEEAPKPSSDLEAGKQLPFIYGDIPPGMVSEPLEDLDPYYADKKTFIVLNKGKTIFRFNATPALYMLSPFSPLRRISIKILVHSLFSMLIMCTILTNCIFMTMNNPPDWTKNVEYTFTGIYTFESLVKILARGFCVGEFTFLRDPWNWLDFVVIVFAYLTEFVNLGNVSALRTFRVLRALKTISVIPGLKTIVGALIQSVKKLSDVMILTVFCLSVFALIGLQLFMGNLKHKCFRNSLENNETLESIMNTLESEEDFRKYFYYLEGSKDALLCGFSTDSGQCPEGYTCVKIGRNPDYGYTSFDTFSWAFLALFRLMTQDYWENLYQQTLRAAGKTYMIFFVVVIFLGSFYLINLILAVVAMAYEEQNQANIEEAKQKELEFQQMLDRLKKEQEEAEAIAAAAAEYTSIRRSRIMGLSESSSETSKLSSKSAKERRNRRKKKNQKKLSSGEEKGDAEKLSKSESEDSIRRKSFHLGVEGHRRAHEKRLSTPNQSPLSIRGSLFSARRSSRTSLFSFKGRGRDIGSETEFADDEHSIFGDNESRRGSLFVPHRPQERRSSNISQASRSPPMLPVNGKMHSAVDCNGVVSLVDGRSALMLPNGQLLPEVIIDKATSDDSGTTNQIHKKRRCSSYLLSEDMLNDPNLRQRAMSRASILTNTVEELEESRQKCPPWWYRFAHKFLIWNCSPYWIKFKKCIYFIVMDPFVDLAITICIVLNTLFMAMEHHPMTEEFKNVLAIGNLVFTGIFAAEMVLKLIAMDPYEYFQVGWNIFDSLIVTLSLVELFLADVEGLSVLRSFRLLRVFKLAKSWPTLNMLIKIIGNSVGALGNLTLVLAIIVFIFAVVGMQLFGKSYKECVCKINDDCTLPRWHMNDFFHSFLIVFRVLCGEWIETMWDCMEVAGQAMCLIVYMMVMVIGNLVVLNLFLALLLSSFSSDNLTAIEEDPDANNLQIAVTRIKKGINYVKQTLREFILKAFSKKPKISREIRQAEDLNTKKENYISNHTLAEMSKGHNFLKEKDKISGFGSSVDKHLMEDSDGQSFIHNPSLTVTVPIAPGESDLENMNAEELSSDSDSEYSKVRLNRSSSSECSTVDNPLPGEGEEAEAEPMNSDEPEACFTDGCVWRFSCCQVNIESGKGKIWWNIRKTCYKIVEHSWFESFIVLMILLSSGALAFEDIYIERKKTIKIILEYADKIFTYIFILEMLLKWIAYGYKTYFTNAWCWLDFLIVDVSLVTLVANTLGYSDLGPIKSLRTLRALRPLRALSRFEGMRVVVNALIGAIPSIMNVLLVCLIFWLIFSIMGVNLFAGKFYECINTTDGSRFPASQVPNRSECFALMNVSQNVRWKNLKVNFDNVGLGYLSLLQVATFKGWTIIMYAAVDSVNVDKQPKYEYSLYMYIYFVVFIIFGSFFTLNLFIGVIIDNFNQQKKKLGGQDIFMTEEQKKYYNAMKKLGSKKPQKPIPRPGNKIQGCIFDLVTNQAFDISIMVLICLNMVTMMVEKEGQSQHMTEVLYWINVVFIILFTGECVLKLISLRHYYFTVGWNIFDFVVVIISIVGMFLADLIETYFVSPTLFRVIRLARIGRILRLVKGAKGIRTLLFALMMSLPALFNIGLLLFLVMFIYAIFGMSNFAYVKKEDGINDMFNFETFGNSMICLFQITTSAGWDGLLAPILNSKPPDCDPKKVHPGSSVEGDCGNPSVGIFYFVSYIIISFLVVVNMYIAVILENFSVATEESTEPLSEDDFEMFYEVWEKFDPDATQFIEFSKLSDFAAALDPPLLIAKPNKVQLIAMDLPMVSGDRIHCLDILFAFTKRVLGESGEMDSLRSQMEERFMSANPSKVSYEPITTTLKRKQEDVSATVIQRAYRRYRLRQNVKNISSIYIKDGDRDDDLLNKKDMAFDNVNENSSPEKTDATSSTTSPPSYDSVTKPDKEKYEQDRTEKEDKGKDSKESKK

Structure (SMILES) | slope of concentration-dependence [1] | IC50 ([2]; DRG neurons, −100 mV holding potential, 0.2 Hz train of −10 mV depolarizations, read-out: half maximal potency of INa inhibition (IC50)) [µM] | inhibition of sodium currents recorded from DRG neurons (in words) ([2]; tamoxifen analogs and fragments, FIG. 7B) | knee hyperalgesia versus vehicle, direct comparison study (in words) [3] | knee withdrawal threshold versus vehicle control (in words) [3] | voltage dependence of INa inhibition (in words) [2] | knee hyperalgesia after local injection of a relatively high dose (in words) [4]
CC/C(=C(\c1ccc(O)cc1)c1ccc(OCCN(C)C)cc1)c1ccccc1 [4OH-Tam, 4-[(Z)-1-[4-[2-(dimethylamino)ethoxy]phenyl]-2-phenylbut-1-enyl]phenol] | 2.1 | 3.3 | inhibited sodium currents |  |  |  | 
C=C(C)[C@@H]1CCC(C)=C[C@H]1c1c(O)cc(CCCCC)cc1O [CBD, cannabidiol, reference compound] |  |  |  | effectively inhibited knee hyperalgesia | remained elevated compared to vehicle control through 3 hours after injection | followed this trend | 
NC(=O)N1c2ccccc2C=Cc2ccccc21 [CBZ, carbamazepine, reference compound] |  |  |  |  |  | most potent when membranes were held at −60 mV | 
CCN(CC)CC(=O)Nc1c(C)cccc1C [lidocaine, reference compound] |  |  |  | effectively inhibited knee hyperalgesia | remained elevated compared to vehicle control through 3 hours after injection | most potent when membranes were held at −60 mV | able to acutely reverse knee hyperalgesia
